Test results reported in US20220016049A1, “TISSUE REPAIR” (Regenall Limited, priority 2019, published 2022).

Key:
[1] = test system: Spinal cord injury; experiment: Patient-reported outcome measure, spinal cord injury, recovery following treatment with vitamin A; format: in vivo, human
Text: Patient-Reported Outcome Measure
Spinal Cord Injury—Recovery Following Treatment with Vitamin A
Vitamin A 50,000 IU (from Retinyl palmitate and fish liver oil)
Starting in October 2018. For three months taking vitamin A 10,000×3. Increasing in end January 2019 10,000×5.
Vitamin A (from cod liver oil and vitamin A palmitate)
For 3 months 3 tablets a day and for 3 months 5 tablets a day
21 years later in February 2019
I take 50,000 IU in one administration in the morning daily
Continuing: Almost 2 months

[2] = test system: Tendon injury; experiment: Tendon injury in a horse, recovery following treatment with vitamin A (case report); format: in vivo; conditions: retinyl palmitate oral 750,000 IU twice daily, at least 4 weeks
Text: Tendon Injury—Recovery Following Treatment with Vitamin A [table] [table] Treatment with Vitamin A was initiated approximately 20 days after the initial injury. Retinyl palmitate (93.8% Retinol Equivalent) Oral 750,000 IU […] Continuing (at least 4 weeks) Functional recovery has been good considering the severity of the lesion. […] It is not uncommon for such lesions to take between 12 to 18 months to heal.

[3] = horse; cited from earlier work

Vitamin A
Pain reduction (right lower back) ([1]; Human Subject 1, injury 1963 (T4), oral 50,000 IU once daily, 3 months, started 56 years after injury): 10-15%
Duration of pain ([1]; Human Subject 1, oral 50,000 IU once daily, 3 months): much less
First recovery found (walking control, balance) ([1]; Human Subject 2, spinal stenosis, both legs paralyzed, oral 30,000 IU per day for 3 months from October 2018): more walking control and balance
Strength, balance and movement control ([1]; Human Subject 2, March 2019, oral 50,000 IU per day from end of January 2019): much stronger, more balanced, more movement control
Walking without any support on even level ([1]; Human Subject 2, beginning of April 2019, oral 50,000 IU per day): 30-50 meters
Improvement of pain level ([1]; Human Subject 3, disc/nerve pain around knee, oral 50,000 IU daily, 4-5 months): 80%
Neck flexibility ([1]; Human Subject 4, injury at C4/C5 in 1998, oral 50,000 IU daily, almost 2 months, started 21 years after injury): much more flexible
Neck aching ([1]; Human Subject 4, oral 50,000 IU daily, almost 2 months): largely disappeared
Functional recovery ([2]; Horse subject 1 (polo pony, 14 years), started approximately 20 days after injury): good
Size of the lesion (ultrasonography) ([2]; Horse subject 1): good reduction in the size of the lesion
Vitamin A toxicity level [3]: around 1,000 IU/kg body weight (BW)/day
